From EP4089103A1, “CLPCP PROTEASE-BINDING CYCLIC HEPTAPEPTIDES” (priority 2021, dated 2022)
Values after ≈ are worked out from the molar mass of the structure shown. Values joined by “and” are separate entries in the source; they are usually repeats but may differ in a detail not shown here. Identical values can stand only once. Like-named read-outs stand apart in the source and are kept apart here. Starred links: 1 amine or outer side, 2 acyl side, 3 side chain; linkers in the order of their positions; H or OH if unused. Non-standard residues stand in square brackets, D forms with d. Residues, ends and D or L forms follow the SMILES beside them. *: point of attachment. Trp(1-(1,1-Me2-allyl)) = C=CC(C)(C)n1cc(C[C@H](N)C(=O)O)c2ccccc21; Phe(βR-OMe) = CO[C@H](c1ccccc1)[C@H](N)C(=O)O; X4 = C/C=C/[C@@H](C)[C@H](N[*:1])C(=O)[*:2]; X2 = CN([C@@H](CCCO)C(=O)[*:2])[*:1]; NMeE = CN[C@@H](CCC(=O)O)C(=O)O; NMeL = CN[C@@H](CC(C)C)C(=O)O; NMeK = CN[C@@H](CCCCN)C(=O)O; tBu = CC(C)(C)*; NHPr = CCCN*

Key:
[1] = molecular target: T1, ClpC1NTD (Mycolicibacterium smegmatis, UniProt A0R574); experiment: Binding affinity by isothermal titration calorimetry (ITC); conditions: ITC at 25 °C, 50 mM Tris pH 7.5, 100 mM NaCl, 2% DMSO, single binding site model
T1 construct: M. smegmatis clpC1 NTD (1-148) was cloned in pET21a; hexahistidine (C); made in house; host or cells: E. coli BL21 (DE3) or Rosetta
Protocol: Binding affinities were determined using isothermal titration calorimetry (ITC).
ITC experiments were carried out using MicroCal PEAQ-ITC (Malvern) at 25 °C, whilst stirring at 750 rpm in a buffer containing 50 mM Tris pH 7.5, 100 mM NaCl. Each titration consisted of 19 injections with intervals of 120 s (the first injection of 0.4 µL followed by 18 injections of 2 µL). DMSO concentration was matched between cell and syringe to 2%. The data were fitted to a single binding site model with a fitted offset subtraction in the MicroCal PEAQ-ITC Analysis Software. Each titration was repeated at least two times. Titrations were performed with ligand in the syringe and protein in the cell. A control titration of ligand into buffer was performed in order to account for the heat of dilution. Titrations involving compounds with poorer solubility of the compound in buffer were performed with ligand in the cell and protein in the syringe. The following table 2 provides the results of the determination. Table 2: results for dissociation constant (KD) and Minimal Inhibitory Concentration (MIC)

[2] = test system: mycobacterial cell; experiment: Minimal Inhibitory Concentration (MIC); assay type: cell-based
[3] = amide bond, 21-membered ring
[4] = from H-Val-MeLeu-Ile-Trp(Boc)-MeGlu(tBu)-Ala-Phe-OH; amide bond; 21-membered ring; T3P/DIEA; DCM; 0.75 mM; 25.0 °C
[5] = the molecule shown is the open-chain precursor
[6] = the molecule shown is the open-chain precursor, DIC/HOAt/Et3N, DCM, 0.75 mM, 25.0 °C

T1 sequence (A0R574 1-148): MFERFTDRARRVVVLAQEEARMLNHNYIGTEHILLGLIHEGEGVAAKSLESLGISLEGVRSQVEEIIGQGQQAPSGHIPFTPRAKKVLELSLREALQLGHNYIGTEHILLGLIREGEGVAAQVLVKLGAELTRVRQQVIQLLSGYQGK

## CC[C@H](C)[C@@H]1NC(=O)[C@H](CC(C)C)N(C)C(=O)[C@H](C(C)C)NC(=O)[C@H](Cc2ccccc2)NC(=O)[C@H](C)NC(=O)[C@H](CCC(=O)O)N(C)C(=O)[C@H](Cc2c[nH]c3ccccc23)NC1=O [CycloA_D2] (cyclo(AFV[NMeL]IW[NMeE]))
[1]
  Kd: 225 µM

## CC[C@H](C)[C@@H]1NC(=O)[C@H](CC(C)C)N(C)C(=O)[C@H](C(C)C)NC(=O)[C@H](Cc2ccccc2)NC(=O)[C@H](C)NC(=O)[C@H](CCCO)N(C)C(=O)[C@H](Cc2ccc(OC(C)(C)C)cc2)NC1=O [CycloA_D5a] (cyclo(V[NMeL]IY(tBu)[X2]AF))
[1]
  Kd: 128 µM
[2]
  MIC: > 30 µM

## CC[C@H](C)[C@@H]1NC(=O)[C@H](CC(C)C)N(C)C(=O)[C@H](C(C)C)NC(=O)[C@H](Cc2ccccc2)NC(=O)[C@H](C)NC(=O)[C@H](CCCO)N(C)C(=O)[C@H](Cc2ccc(O)cc2)NC1=O [CycloA_D5b] (cyclo(V[NMeL]IY[X2]AF))
[1]
  Kd: 326 µM

## CC[C@H](C)[C@@H]1NC(=O)[C@H](CC(C)C)N(C)C(=O)[C@H](C(C)C)NC(=O)[C@H](Cc2ccccc2)NC(=O)[C@H](C)NC(=O)[C@H](CCCCN)N(C)C(=O)[C@H](Cc2c[nH]c3ccccc23)NC1=O [CycloA_D6] (cyclo(AFV[NMeL]IW[NMeK]))
[1]
  Kd: 14.9 µM
[2]
  MIC: 24 µM (≈ 21.3 µg/mL)

## CCCNC(=O)CC[C@H]1C(=O)N[C@@H](C)C(=O)N[C@@H](Cc2ccccc2)C(=O)N[C@@H](C(C)C)C(=O)N(C)[C@@H](CC(C)C)C(=O)N[C@@H]([C@@H](C)CC)C(=O)N[C@@H](Cc2c[nH]c3ccccc23)C(=O)N1C [CycloA_D7] (cyclo(AFV[NMeL]IW[NMeE](NHPr)))
[1]
  Kd: 26.8 µM
[2]
  MIC: > 120 µM

## CC[C@H](C)[C@@H]1NC(=O)[C@H](CC(C)C)N(C)C(=O)[C@H](C(C)C)NC(=O)[C@H]([C@H](OC)c2ccccc2)NC(=O)[C@H](C)NC(=O)[C@H](CCCCN)N(C)C(=O)[C@H](Cc2c[nH]c3ccccc23)NC1=O [CycloA_D9] (cyclo(W[NMeK]A[Phe(βR-OMe)]V[NMeL]I))
[1]
  Kd: 2.8 µM
[2]
  MIC: 12 µM (≈ 11 µg/mL)

## C=CC(C)(C)n1cc(C[C@@H]2NC(=O)[C@H]([C@@H](C)CC)NC(=O)[C@H](CC(C)C)N(C)C(=O)[C@H](C(C)C)NC(=O)[C@H](Cc3ccccc3)NC(=O)[C@H](C)NC(=O)[C@H](CCCCN)N(C)C2=O)c2ccccc21 [CycloA_D10] (cyclo(AFV[NMeL]I[Trp(1-(1,1-Me2-allyl))][NMeK]))
[2]
  MIC: 40 µM (≈ 38.2 µg/mL)

## C=CC(C)(C)n1cc(C[C@@H]2NC(=O)[C@H]([C@@H](C)CC)NC(=O)[C@H](CC(C)C)N(C)C(=O)[C@H](C(C)C)NC(=O)[C@H]([C@H](OC)c3ccccc3)NC(=O)[C@H](C)NC(=O)[C@H](CCCCN)N(C)C2=O)c2ccccc21 [CycloA_D11] (cyclo(A[Phe(βR-OMe)]V[NMeL]I[Trp(1-(1,1-Me2-allyl))][NMeK]))
[2]
  MIC: 20 µM (≈ 19.7 µg/mL)

## CC[C@H](C)[C@@H]1NC(=O)[C@H](CCC(=O)O)N(C)C(=O)[C@H](C(C)C)NC(=O)[C@H]([C@H](OC)c2ccccc2)NC(=O)[C@H](C)NC(=O)[C@H](CCCCN)N(C)C(=O)[C@H](Cc2c[nH]c3ccccc23)NC1=O [CycloA_D13] (cyclo(A[Phe(βR-OMe)]V[NMeE]IW[NMeK]))
[2]
  MIC: >200 µM

## C=CC(C)(C)n1cc(C[C@@H]2NC(=O)[C@H]([C@H](C)/C=C/C)NC(=O)[C@H](CC(C)C)N(C)C(=O)[C@H](C(C)C)NC(=O)[C@H]([C@H](OC)c3ccccc3)NC(=O)[C@H](C)NC(=O)[C@H](CCCCN)N(C)C2=O)c2ccccc21 [CycloA_D17] (cyclo(A[Phe(βR-OMe)]V[NMeL][X4][Trp(1-(1,1-Me2-allyl))][NMeK]))
[2]
  MIC: 20 µM (≈ 19.9 µg/mL)

## CC[C@H](C)[C@@H]1NC(=O)[C@H](CC(C)C)N(C)C(=O)[C@H](C(C)C)NC(=O)[C@H](Cc2ccccc2)NC(=O)[C@H](C)NC(=O)[C@H](CCCO)N(C)C(=O)[C@H](Cc2c[nH]c3ccccc23)NC1=O [CylcoA_D4] (cyclo(AFV[NMeL]IW[X2]))
[1]
  Kd: 107 µM
[2]
  MIC: > 30 µM

## CC[C@H](C)[C@@H]1NC(=O)[C@H](CCC(=O)OC(C)(C)C)N(C)C(=O)[C@H](C(C)C)NC(=O)[C@H]([C@H](OC)c2ccccc2)NC(=O)[C@H](C)NC(=O)[C@H](CCCCNC(=O)OC(C)(C)C)N(C)C(=O)[C@H](Cc2cn(C(=O)OC(C)(C)C)c3ccccc23)NC1=O [H-Val-MeGlu(tBu)-Ile-Trp(Boc)-MeLys(Boc)-Ala-Phe(3R-MeO)-OH]
[3]; from H-Val-MeGlu(tBu)-Ile-Trp(Boc)-MeLys(Boc)-Ala-Phe(3R-MeO)-OH, T3P/DIEA, DCM, 0.75 mM, 25.0 °C
  ring closure, crude yield: 52%

## CC[C@H](C)[C@@H]1NC(=O)[C@H](CC(C)C)N(C)C(=O)[C@H](C(C)C)NC(=O)[C@H](Cc2ccccc2)NC(=O)[C@H](C)NC(=O)[C@H](CCC(=O)OC(C)(C)C)N(C)C(=O)[C@H](Cc2cn(C(=O)OC(C)(C)C)c3ccccc23)NC1=O [H-Val-MeLeu-Ile-Trp(Boc)-MeGlu(tBu)-Ala-Phe-OH]
[3]; from H-Val-MeLeu-Ile-Trp(Boc)-MeGlu(tBu)-Ala-Phe-OH, T3P/DIEA, DCM, 0.75 mM, 25.0 °C
  ring closure, crude yield: 52% and 54%
[4]
  ring closure, yield after HPLC: 39%

## CC[C@H](C)[C@@H]1NC(=O)[C@H](CC(C)C)N(C)C(=O)[C@H](C(C)C)NC(=O)[C@H](Cc2ccccc2)NC(=O)[C@H](C)NC(=O)[C@H](CCCO[Si](C)(C)C(C)(C)C)N(C)C(=O)[C@H](Cc2cn(C(=O)OC(C)(C)C)c3ccccc23)NC1=O [H-Val-MeLeu-Ile-Trp(Boc)-MeHnv(TBDMS)-Ala-Phe-OH]
[3]; from H-Val-MeLeu-Ile-Trp(Boc)-MeHnv(TBDMS)-Ala-Phe-OH, T3P/DIEA, DCM, 0.75 mM, 25.0 °C
  ring closure, crude yield: 94%

## CC[C@H](C)[C@@H]1NC(=O)[C@H](CC(C)C)N(C)C(=O)[C@H](C(C)C)NC(=O)[C@H]([C@H](OC)c2ccccc2)NC(=O)[C@H](C)NC(=O)[C@H](CCCCNC(=O)OC(C)(C)C)N(C)C(=O)[C@H](Cc2cn(C(=O)OC(C)(C)C)c3ccccc23)NC1=O [H-Val-MeLeu-Ile-Trp(Boc)-MeLys(Boc)-Ala-Phe(3R-MeO)-OH]
[3]; from H-Val-MeLeu-Ile-Trp(Boc)-MeLys(Boc)-Ala-Phe(3R-MeO)-OH, T3P/DIEA, DCM, 0.75 mM, 25.0 °C
  ring closure, crude yield: 88%

## CC[C@H](C)[C@@H]1NC(=O)[C@H](CC(C)C)N(C)C(=O)[C@H](C(C)C)NC(=O)[C@H](Cc2ccccc2)NC(=O)[C@H](C)NC(=O)[C@H](CCCCNC(=O)OC(C)(C)C)N(C)C(=O)[C@H](Cc2cn(C(=O)OC(C)(C)C)c3ccccc23)NC1=O [H-Val-MeLeu-Ile-Trp(Boc)-MeLys(Boc)-Ala-Phe-OH]
[3]; from H-Val-MeLeu-Ile-Trp(Boc)-MeLys(Boc)-Ala-Phe-OH, T3P/DIEA, DCM, 0.75 mM, 25.0 °C
  ring closure, crude yield: 75%

## CC[C@H](C)[C@@H]1NC(=O)[C@H](CC(C)C)N(C)C(=O)[C@H](C(C)C)NC(=O)[C@H](Cc2ccccc2)NC(=O)[C@H](C)NC(=O)[C@H](CCCNC(=O)OC(C)(C)C)N(C)C(=O)[C@H](Cc2cn(C(=O)OC(C)(C)C)c3ccccc23)NC1=O [H-Val-MeLeu-Ile-Trp(Boc)-MeOrn(Boc)-Ala-Phe-OH]
[3]; from H-Val-MeLeu-Ile-Trp(Boc)-MeOrn(Boc)-Ala-Phe-OH, T3P/DIEA, DCM, 0.75 mM, 25.0 °C
  ring closure, crude yield: 98%

## CC[C@H](C)[C@@H]1NC(=O)[C@H](CC(C)C)N(C)C(=O)[C@H](C(C)C)NC(=O)[C@H](Cc2ccccc2)NC(=O)[C@H](C)NC(=O)[C@H](CCC(=O)OC)N(C)C(=O)[C@H](Cc2ccc(OC(C)(C)C)cc2)NC1=O [H-Val-MeLeu-Ile-Tyr(tBu)-MeGlu(Me)-Ala-Phe-OH]
[3]; from H-Val-MeLeu-Ile-Tyr(tBu)-MeGlu(Me)-Ala-Phe-OH, T3P/DIEA, DCM, 0.75 mM, 25.0 °C
  ring closure, crude yield: 72%

## H-Glu(TOTA-PMX-methylester)-Phe(3R-MeO)-Val-MeLeu-Ile-Trp(Boc)-MeLys(Boc)-OH
[3]; [5]
  ring closure, crude yield: 77% and 58%

## H-Glu(TOTA-TMP)-Phe(3R-MeO)-Val-MeLeu-Ile-Trp(Boc)-MeLys(Boc)-OH?
[3]; [5]
  ring closure, crude yield: 65%

## H-Val-MeLeu-Ile-Trp(Boc)-MeLys(Boc)-Glu(TOTA-(+)JQ1)-Phe(3R-MeO)-OH
[3]; [5]
  ring closure, crude yield: 64%

## H-Val-MeLeu-Ile-Trp(Boc)-MeLys(Boc)-Glu(TOTA-(-)JQ1)-Phe(3R-MeO)-OH
[3]; [5]
  ring closure, crude yield: 70%

## H-Val-MeLeu-Ile-Trp(Boc)-MeLys(Boc)-Glu(TOTA-Biotin)-Phe(3R-MeO)-OH
[3]; [6]
  ring closure, crude yield: 63%

## H-Val-MeLeu-Ile-Trp(Boc)-MeLys(Boc)-Glu(TOTA-SLF')-Phe(3R-MeO)-OH
[3]; [5]
  ring closure, crude yield: 54%

## H-Val-MeLeu-Ile-Trp(Boc)-MeLys(Boc)-Lys(Biotin)-Phe(3R-MeO)-OH
[3]; [6]
  ring closure, crude yield: 72%

## H-Val-MeLeu-Ile-Trp(prenyl)-MeLys(Boc)-Ala-Phe(3R-MeO)-OH
[3]; [6]
  ring closure, crude yield: 65%

## H-Val-MeLeu-Ile-Trp(prenyl)-MeLys(Boc)-Ala-Phe-OH
[3]; [6]
  ring closure, crude yield: 78%

## H-Val-MeLeu-dehydroisonorleucine-Trp(prenyl)-MeLys(Boc)-Ala-Phe(3R-MeO)-OH
[3]; [6]
  ring closure, crude yield: 81%
